In brackets after ≈: the same amount, converted by molar mass. Several values for one entry are separate records, joined by “and”; a condition that tells them apart may be missing. Equal entries are not always repeated. Where two headings read alike, the source gives them in different places.
Legend:
[1] = molecular target: human hERG channels (Homo sapiens (Human), UniProt Q12809); assay: hERG assay (patch clamp, CHO cells); format: cell-based
Description: hERG assay: Briefly, cells from a stable CHO cell line expressing human hERG channels were plated onto glass coverslips and used in patch clamp assays on the same day. After seal formation and break-in to whole-cell configuration, voltage steps were applied as follows: from the holding potential of −90 mV, a 2 second long step to +40 mV was applied, followed by a 1.5 second step to −50 mV. These steps were applied once every 5 seconds. The hERG current was measured at the peak of the outward tail current at −50 mV. The pipette solution was potassium aspartate based and the external solution was normal Ringer's.
All currents were recorded in whole-cell configuration using an Axopatch 200B controlled by pClamp 10 software (Molecular Devices). In each cell, when the current stabilized, the compound was perfused locally onto the cell. Two to three concentrations of the test compound were applied to each cell. At the end of compound testing, 10 μM verapamil was applied to completely block hERG currents and assess leak current.
Data were analyzed by computing the degree of current block after compound addition compared with the unblocked current amplitude. The unblocked current was predicted from the interpolation between the current amplitude prior to compound addition and after compound washout. The resulting percent block at each concentration was used to make a concentration-response plot and fitted to the Hill equation: percent block=minimum block+(maximum block-minimum block)/(1+10^(Hill slope*(log IC50−concentration))).

[2] = Aqueous solubility assay in Normal Ringer Solution; conditions: Normal Ringer Solution, saline or isotonic, kinetic from dmso stock
Description: Following vortex and incubation for a sufficient time (e.g. 40 minutes at room temperature), solutions were filtered, quenched with acetonitrile, and analyzed by Liquid Chromotography. Solubility Limits were determined by comparison to a standard curve.

[3] = molecular target: T1, hTRPV3 (Homo sapiens (Human), UniProt Q8NET8); assay: Whole-cell patch clamp, hTRPV3 Phase 1 / Phase 2 currents; format: cell-based
How it was run: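 Whole-cell recordings on induced TRPV3 cells replated on coverslips, held at −40 mV with 400 ms ramps from −120 to +100 mV every 5 s; currents read at −80 and +80 mV. Ringer's external solution; current activated by heating to ≥28 °C or 20 μM 2-APB.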

[4] = molecular target: rat (r) TRPV3 (Rattus norvegicus, UniProt E9PU00); assay: Whole-cell patch clamp, rTRPV3 Phase 1 / Phase 2 currents; format: cell-based
Description: Whole-cell patch clamp experiments permit the detection of currents through the TRPV3 channel in the cell line described above. A glass electrode is brought into contact with a single cell and the membrane is then ruptured, permitting control of the voltage of the cell membrane and measurement of currents flowing across the membrane using the amplifier attached to the electrode. A perfusion system permits control of the extracellular solution, including the addition of blockers and activators of the current. The current can be activated by heating this solution to 28° C. or warmer or by addition of 20 μM 2-APB to the solution.
TRPV3 cells were induced 20-48 hours, removed from growth plates, and replated at low density (to attain good single-cell physical separation) on glass coverslips for measurement. In some cases, cells were grown in low density overnight on glass coverslips. Patch clamp recordings were made in the whole-cell mode with a holding potential of −40 mV. Every 5 seconds, a voltage ramp was applied from −120 to +100 mV, 400 ms in duration. Currents elicited were quantified at −80 mV and +80 mV. The internal solution consisted of 140 mM cesium aspartate, 10 mM EGTA, 2.27 mM MgCl2, 1.91 mM CaCl2) and 10 mM HEPES, pH to 7.2 with KOH; with 50 nM calculated free […]. External solution was Ringer's solution described above. Upon addition of 2-APB or upon heating of the extraceullar solution as described above, TRPV3 current was induced only in TRPV3-expressing cells and not in parental HEK293 TREx cells. […] Removal of the stimulus caused most of the current to go away, and inhibitor addition could still inhibit this current.
In Tables 3 and 4, Phase 1 refers to Phase 1 current for human (h) TRPV3 or rat (r) TRPV3, and Phase 2 refers to Phase 2 current for human (h) TRPV3 or rat (r) TRPV3. The hTRPV3 and rTRPV3 assays were performed as described herein. hERG refers to the inhibition the human ERG (hERG) channel. NaV1.5, refers to the pore forming aL-subunit of the voltage-dependent cardiac Na(+) channel and is an integral membrane protein involved in the initiation and conduction of action potentials. hTRPV3 HAMA IC50 refers to the IC50 of TRPV3 cells stably expressed in TRex-293 cells. Solubility Ringer refers to the compounds' solubility in Ringer's solution. LM T1/2 refers to liver microsome half-lives in either rat or human liver microsomes. FLIPR IC50 refers to the IC50 of the test compounds against recombinant hTRPV3 cells.

[5] = Metabolic Stability assay, rat liver microsomes; format: in vitro ADME
How it was run: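 Test article at 1 μM starting concentration incubated with human or rat liver microsomes at 37 °C, with the reaction started by NADPH regeneration components. Aliquots were quenched in cold acetonitrile/MeOH/H2O at 0, 7, 15, 30 and 60 min and analysed by HPLC/MS/MS.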

[6] = Metabolic Stability assay, human liver microsomes; format: in vitro ADME
Description: Metabolic Stability assay: The metabolic stability was determined by adding compound dissolved in DMSO to human or rat, liver microsomes. Briefly, assays were run with a starting concentration of 1 μM test article. The reaction was started by addition of NADPH regeneration components at 37° C. at which time an aliquot was immediately quenched in ice-cold acetonitrile/MeOH/H2O solution. Reaction mixture was incubated at 37° C. on a shaker, and additional aliquots were taken at 7, 15, 30 and 60 minutes. Following quench and centrifugation, samples were analyzed on HPLC/MS/MS.

[7] = tested on: male C57BL/6J mice, AEW induced pruritus; assay: Acetone-ether-water (AEW) induced pruritus model in mice; conditions: HC-030031 4 mg/mouse SC 5 min before recording; P=0.0005 vs Vehicle2
[8] = molecular target: T1, hTRPV3; assay: hTRPV3 HAMA IC50 assay (Hamamatsu FDSS6000 calcium flux, TRex-293 cells); conditions: 5 min
Description: IC50s were calculated using CBIS from ChemInnovation (San Diego).

[9] = Phase 1 current, inward, whole-cell patch clamp, read-out: hTRPV3 Patch P1 Inwd
[10] = Phase 1 current, human TRPV3, read-out: hTRPV3 (nM) Phase 1

T1 sequence (Q8NET8 whole entry): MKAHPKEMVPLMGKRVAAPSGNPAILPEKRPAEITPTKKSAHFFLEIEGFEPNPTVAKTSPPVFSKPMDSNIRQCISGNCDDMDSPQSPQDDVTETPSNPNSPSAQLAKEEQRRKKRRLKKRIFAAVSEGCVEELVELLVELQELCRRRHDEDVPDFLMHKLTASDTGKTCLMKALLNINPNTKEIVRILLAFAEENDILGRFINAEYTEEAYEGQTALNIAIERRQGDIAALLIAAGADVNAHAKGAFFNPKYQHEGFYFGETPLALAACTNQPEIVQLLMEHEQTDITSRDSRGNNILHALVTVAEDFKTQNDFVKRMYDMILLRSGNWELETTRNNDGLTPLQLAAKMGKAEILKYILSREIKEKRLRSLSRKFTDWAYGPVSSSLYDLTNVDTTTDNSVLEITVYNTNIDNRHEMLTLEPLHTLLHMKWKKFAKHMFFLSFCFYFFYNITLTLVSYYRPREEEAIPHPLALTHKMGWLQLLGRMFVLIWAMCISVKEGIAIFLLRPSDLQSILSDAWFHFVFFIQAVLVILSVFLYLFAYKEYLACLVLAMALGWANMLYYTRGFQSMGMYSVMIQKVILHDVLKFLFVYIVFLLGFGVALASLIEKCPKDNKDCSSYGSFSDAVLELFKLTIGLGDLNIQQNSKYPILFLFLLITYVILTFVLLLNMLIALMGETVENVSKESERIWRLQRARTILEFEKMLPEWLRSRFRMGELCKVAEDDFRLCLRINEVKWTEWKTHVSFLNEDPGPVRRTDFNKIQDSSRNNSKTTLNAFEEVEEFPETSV
human hERG channels, sequence (Q12809 whole entry): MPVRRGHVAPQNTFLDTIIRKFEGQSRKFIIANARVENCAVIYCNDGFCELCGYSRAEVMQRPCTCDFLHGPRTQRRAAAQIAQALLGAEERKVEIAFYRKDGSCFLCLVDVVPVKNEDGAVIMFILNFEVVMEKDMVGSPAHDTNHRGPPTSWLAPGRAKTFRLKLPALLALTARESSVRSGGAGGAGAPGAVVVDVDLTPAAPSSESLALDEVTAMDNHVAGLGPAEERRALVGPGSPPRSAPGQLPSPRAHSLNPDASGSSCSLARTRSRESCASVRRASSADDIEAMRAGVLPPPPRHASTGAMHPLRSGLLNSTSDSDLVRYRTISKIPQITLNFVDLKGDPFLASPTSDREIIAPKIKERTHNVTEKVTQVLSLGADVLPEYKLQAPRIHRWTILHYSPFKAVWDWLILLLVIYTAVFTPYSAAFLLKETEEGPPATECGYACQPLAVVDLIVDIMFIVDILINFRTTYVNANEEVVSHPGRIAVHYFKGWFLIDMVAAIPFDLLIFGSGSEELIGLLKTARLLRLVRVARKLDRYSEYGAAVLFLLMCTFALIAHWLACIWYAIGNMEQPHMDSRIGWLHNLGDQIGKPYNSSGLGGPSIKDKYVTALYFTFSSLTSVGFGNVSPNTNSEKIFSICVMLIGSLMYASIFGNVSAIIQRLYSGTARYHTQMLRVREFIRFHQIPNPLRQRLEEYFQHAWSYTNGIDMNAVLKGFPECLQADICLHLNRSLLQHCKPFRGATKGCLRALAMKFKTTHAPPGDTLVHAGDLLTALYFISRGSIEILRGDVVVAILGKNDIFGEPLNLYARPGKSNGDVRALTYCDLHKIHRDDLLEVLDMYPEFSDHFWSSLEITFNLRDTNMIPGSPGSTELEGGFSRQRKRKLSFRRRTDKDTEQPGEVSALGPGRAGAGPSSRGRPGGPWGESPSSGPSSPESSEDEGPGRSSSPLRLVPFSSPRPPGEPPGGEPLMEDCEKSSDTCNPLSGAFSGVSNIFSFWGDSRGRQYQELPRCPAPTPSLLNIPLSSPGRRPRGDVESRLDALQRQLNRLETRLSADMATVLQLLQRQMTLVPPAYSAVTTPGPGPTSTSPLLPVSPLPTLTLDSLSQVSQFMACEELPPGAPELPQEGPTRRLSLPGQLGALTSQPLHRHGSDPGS
rat (r) TRPV3, sequence (E9PU00 1-791): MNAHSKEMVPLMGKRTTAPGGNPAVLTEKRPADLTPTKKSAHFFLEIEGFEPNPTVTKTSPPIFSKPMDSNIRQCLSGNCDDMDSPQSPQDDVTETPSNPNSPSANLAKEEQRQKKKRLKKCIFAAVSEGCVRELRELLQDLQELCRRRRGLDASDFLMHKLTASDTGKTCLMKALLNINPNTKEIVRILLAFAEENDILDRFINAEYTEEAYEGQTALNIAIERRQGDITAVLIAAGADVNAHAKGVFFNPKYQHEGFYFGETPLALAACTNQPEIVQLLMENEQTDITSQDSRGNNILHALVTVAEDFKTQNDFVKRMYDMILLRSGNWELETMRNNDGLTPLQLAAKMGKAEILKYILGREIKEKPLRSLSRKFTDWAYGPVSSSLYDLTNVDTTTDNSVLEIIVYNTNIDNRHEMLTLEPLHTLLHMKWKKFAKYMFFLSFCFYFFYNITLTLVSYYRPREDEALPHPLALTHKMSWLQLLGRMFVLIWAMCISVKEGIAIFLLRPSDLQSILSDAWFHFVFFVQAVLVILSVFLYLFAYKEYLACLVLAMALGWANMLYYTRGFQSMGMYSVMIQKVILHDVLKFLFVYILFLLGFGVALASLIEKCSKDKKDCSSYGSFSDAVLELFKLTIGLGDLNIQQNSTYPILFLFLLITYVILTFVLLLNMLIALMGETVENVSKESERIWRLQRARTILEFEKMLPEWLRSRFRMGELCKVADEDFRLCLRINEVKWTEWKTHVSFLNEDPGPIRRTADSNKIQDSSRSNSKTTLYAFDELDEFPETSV

## OCc1cc([C@@H](O)c2ccccc2Cl)ccc1N1CC[C@H](Oc2ncccc2F)C1 [Compound 1-321, (2-chlorophenyl)(4-((S)-3-(3-fluoropyridin-2-yloxy)pyrrolidin-1-yl)-3-(hydroxymethyl)phenyl)methanol]
[1]; (PL), read-out: hERG
  IC50: ~3730 nM
[2]
  solubility at 40 min: > 9.8 µM
[3]; [9]
  IC50: 10 to 100 nM
[3]; Phase 1 current, read-out: hTRPV3 (nM) (Phase 1)
  IC50: 12.2 nM
[3]; Phase 2 current
  hTRPV3 (nM) (Phase 2): Incomplete Block
[3]; Phase 2 current, read-out: hTRPV3 (nM) (Phase 2)
  IC50: ~30 nM and ~44 nM
[4]; Phase 1 current, read-out: rTRPV3 (nM) (Phase 1)
  IC50: 5.37 nM
[4]; rTRPV3 (nM) (Phase 2), Phase 2 current
  IC50: ~15.7 nM
[5]; read-out: LM T1/2 (min) (rat)
  half-life at 1 μM: 16.9 min

## CC(C)c1ccccc1-c1ccc(C2CCN(C(=O)c3cc(Cl)ccn3)C2)c(CO)c1 (centres unmarked) [Compound 2-49, (4-chloropyridin-2-yl)(3-(3-(hydroxymethyl)-2′-isopropylbiphenyl-4-yl)pyrrolidin-1-yl)methanone]
[1]; (PL), read-out: hERG (nM) (PL)
  IC50: 6970 nM
[6]; read-out: LM T1/2 (min) human
  half-life at 1 μM: 12.2 min
[2]
  solubility at 40 min: > 12.8 µM
[3]; [10]
  IC50: 25.7 nM
[3]; [9]
  IC50: 10 to 100 nM
[5]; read-out: LM T1/2 (min) rat
  half-life at 1 μM: 20.6 min

## O=C(c1ccc(F)cn1)N1CCC(c2ccc(-c3ccccc3C3CC3)cc2CO)C1 (centres unmarked) [Compound 2-72, (3-(2′-cyclopropyl-3-(hydroxymethyl)biphenyl-4-yl)pyrrolidin-1-yl)(5-fluoropyridin-2-yl)methanone]
[1]; (M), read-out: hERG
  IC50: 9240 nM
[1]; (PL), read-out: hERG (nM) (PL)
  IC50: 8460 nM
[6]; read-out: LM T1/2 (min) human
  half-life at 1 μM: 17.5 min
[2]
  solubility at 40 min: ~25.5 µM (≈ 10.6 µg/mL)
[5]; read-out: LM T1/2 (min) rat
  half-life at 1 μM: 31.3 min

## O=C(c1ccc(Cl)cn1)N1CCC(c2ccc(-c3ccccc3C3CC3)cc2CO)C1 (centres unmarked) [Compound 2-56]
[1]; (PL), read-out: hERG (nM) (PL)
  IC50: 7290 nM
[6]; read-out: LM T1/2 (min) human
  half-life at 1 μM: 24.6 min
[2]
  solubility at 40 min: ~5.1 µM (≈ 2.21 µg/mL)
[3]; [10]
  IC50: 2.04 nM
[3]; [9]
  IC50: < 10 nM

## CC(C)c1ccccc1-c1ccc(C2CCN(C(=O)c3ccc(F)cn3)C2)c(CO)c1 (centres unmarked) [Compound 2-29, (5-fluoropyridin-2-yl)(3-(3-(hydroxymethyl)-2′-isopropylbiphenyl-4-yl)pyrrolidin-1-yl)methanone]
[1]; (M), read-out: hERG
  IC50: 7380 nM
[1]; (PL), read-out: hERG (nM) (PL)
  IC50: 7480 nM
[6]; read-out: LM T1/2 (min) human
  half-life at 1 μM: 8.8 min
[2]
  solubility at 40 min: > 16.6 µM
[3]; [10]
  IC50: 6.03 nM
[3]; [9]
  IC50: < 10 nM
[4]; rTRPV3 (nM) Phase 1, Phase 1 current, rat TRPV3
  IC50: 5.56 nM
[5]; read-out: LM T1/2 (min) rat
  half-life at 1 μM: 16.8 min

## CCc1ccccc1-c1ccc(C2CCN(C(=O)c3cccc(Cl)n3)C2)c(CO)c1 (centres unmarked) [Compound 2-53, (6-chloropyridin-2-yl)(3-(2′-ethyl-3-(hydroxymethyl)biphenyl-4-yl)pyrrolidin-1-yl) methanone]
[6]; read-out: LM T1/2 (min) human
  half-life at 1 μM: 24.9 min
[2]
  solubility at 40 min: ~7.7 µM (≈ 3.24 µg/mL)
[3]; [10]
  IC50: 8.39 nM
[3]; [9]
  IC50: < 10 nM
[5]; read-out: LM T1/2 (min) rat
  half-life at 1 μM: 12.3 min

## CC(C)c1ccc(NC(=O)Cn2cnc3c2c(=O)n(C)c(=O)n3C)cc1 [HC-030031]
[7]
  scratching bouts: significantly decreased
  scratching time: significantly decreased

## NC(=O)c1cc(C(F)(F)F)ccc1N1CC[C@H](Oc2ccc(C(F)(F)F)cn2)C1 [Compound 1-58, (S)-5-(trifluoromethyl)-2-(3-(5-(trifluoromethyl)pyridin-2-yloxy)pyrrolidin-1-yl)benzamide]
[6]; read-out: LM T1/2 (min) (human)
  half-life at 1 μM: > 60 min
[2]
  solubility at 40 min: > 11.3 µM
[3]; hTRPV3 (nM) (Phase 1)
  IC50: 1250 nM and 1520 nM and > 3200 nM
[3]; hTRPV3 Patch P2 Inwd (nM)
  IC50: 100 to 1000 nM
[3]; read-out: hTRPV3 (nM) (Phase 1)
  IC50: 1040 nM
[3]; read-out: hTRPV3 (nM) (Phase 2)
  IC50: 241 nM
[8]
  hTRPV3 HAMA IC50 (nM) (5 min): no fit (5 min)
[5]; read-out: LM T1/2 (min) (rat)
  half-life at 1 μM: > 60 min

## CCc1ccccc1-c1ccc(C2CCN(C(=O)c3ncccc3Cl)C2)c(CO)c1 (centres unmarked) [Compound 2-52, (3-chloropyridin-2-yl)(3-(2′-ethyl-3-(hydroxymethyl)biphenyl-4-yl)pyrrolidin-1-yl) methanone]
[6]; read-out: LM T1/2 (min) human
  half-life at 1 μM: 14.4 min
[2]
  solubility at 40 min: > 17.8 µM
[3]; [10]
  IC50: 67.3 nM
[3]; [9]
  IC50: 10 to 100 nM
[5]; read-out: LM T1/2 (min) rat
  half-life at 1 μM: 9.2 min

## CCc1cc(C)ccc1-c1ccc(C2CCN(C(=O)c3ccc(F)cn3)C2)c(CO)c1 (centres unmarked) [Compound 2-62, (3-(2′-ethyl-3-(hydroxymethyl)-4′-methylbiphenyl-4-yl)pyrrolidin-1-yl)(5-fluoropyridin-2-yl)methanone]
[1]; (PL), read-out: hERG (nM) (PL)
  IC50: 17700 nM
[6]; read-out: LM T1/2 (min) human
  half-life at 1 μM: 14.9 min
[2]
  solubility at 40 min: > 12.1 µM
[3]; [10]
  IC50: 64.9 nM
[3]; [9]
  IC50: 10 to 100 nM
[5]; read-out: LM T1/2 (min) rat
  half-life at 1 μM: 14 min

## O=C(c1ccc(C(F)(F)F)cn1)N1CCC(c2ccc(-c3ccccc3C3CC3)cc2CO)C1 (centres unmarked) [Compound 2-58, (3-(2′-cyclopropyl-3-(hydroxymethyl)biphenyl-4-yl)pyrrolidin-1-yl)(5-(trifluoromethyl)pyridin-2-yl)methanone]
[1]; (PL), read-out: hERG (nM) (PL)
  IC50: 15000 nM
[6]; read-out: LM T1/2 (min) human
  half-life at 1 μM: 54.6 min
[2]
  solubility at 40 min: ~5.2 µM (≈ 2.43 µg/mL)
[3]; [10]
  IC50: 27.3 nM
[3]; [9]
  IC50: 10 to 100 nM
[5]; read-out: LM T1/2 (min) rat
  half-life at 1 μM: 47.9 min
